Data from US20130042333A1, “MARKERS FOR CANCER PROGNOSIS AND THERAPY AND METHODS OF USE” (priority 2011, published 2013).

Experiments:
[1] = test system: TC301 colorectal cancer xenograft; test: Tumor regression-regrowth assay, TC301 xenograft; assay type: in vivo, human tumor in immunodeficient mice; conditions: I 40 mg/kg, x1 cycle
Description: (§1) Tumor xenografts were generated by direct subcutaneous grafting into immunodeficient mice of human tumor surgical samples with informed written consent of the patients and maintained by serial transplantation. […] They are thus clinically relevant tumor models, as opposed to xenografts produced from tumor cell lines that have been obtained by in vitro culture and often passaged for many years (Fiebig, H. H. et al. Eur J Cancer 40, 802-820, 2004; Marangoni E., Vincent-Salomon A., Auger N. et al. Clin Cancer Res. 2007 Jul. 1; 13:3989-98).
Chemotherapeutic drugs were administered by intraperitoneal route according to the following doses and schedules: adriamycin, 2 mg/kg, q3wk (Doxorubicin®, Teva Pharmaceuticals, France) and Cyclophosphamide, 100 mg/kg, q3wk (Endoxan®, Baxter, France). […] Etoposide 12 mg/kg, qdx3. Ifosfamide 90 mg/kg, qdx3. bPARP inhibitor (AZD2281, Sequoia Research Products, UK) at 50 mg/kg (ip; qdx14). A second treatment cycle was performed with PARP inhibitor at 50 mg/kg (ip qdx5) during the nodule phase. Other pharmacological inhibitors are tested and administrated at the nodule phase: JAK1/2 Inhibitor (CP-690550) at 15 mg/kg (po qdx14), Epigallocatechin gallate (ECGC) (Sequoia Research Products, UK) at 30 mg/kg (ip qdx28), HDAC inhibitor (Trichostatine A), Retinoic acid at 50 mg/kg (ip qdx28) (Sigma-Aldrich, France). Breast tumor xenograft models were transplanted into 5-week old female Swiss nude mice, as described above, one tumor being transplanted into 5-10 recipients. When tumors reached a volume of 60-250 mm3, mice were individually identified and randomly assigned to the control or treated groups (12 to 20 mice per group). Tumor volume was evaluated by measuring two perpendicular diameters of the tumor, with a calliper, biweekly during the treatment period and once a week during the follow-up period. The formula TV (mm3)=[length (mm)×width (mm)2]/2 was used, where the length and the width were the longest and the shortest diameters of the tumor, respectively. All animals were weighted biweekly during the treatment period and the follow-up period. Mice were ethically sacrificed when the tumor volume reached 2000 mm3 Individual tumor growth delays (TGD) is calculated as the time in days required for individual tumors to reach 3- to 5-fold the initial median tumor volume. The tumor growth delay index (TGDI) is calculated as the median growth delay in the treated group divided by the median growth delay in the control group. The percentage ratio between the mean tumor volume of a treated group (T) and the mean tumor volume of the control group (C) is calculated. […]

[2] = test system: 21 genes implicated in IFN/Stat pathway; test: Real-time quantitative RT-PCR of the 21-gene IFN/Stat signature in tumor xenografts after chemotherapy; assay type: in vivo, human tumor in immunodeficient mice; conditions: colorectal tumor xenograft (TC301)
Experimental: Samples were allocated for histology, microdissection and RNA analyses.
Total RNA amount was measured using the Nanodrop (ND1000, ThermoFisher) and RNA quality was assessed with the Agilent 2100 Bioanalyzer onto RNA NanoChip (Agilent Technology, Massy, France). Three samples from each condition were pooled. Two μg of total RNA were reverse-transcribed with the First strand cDNA synthesis kit (Roche Applied Science, Switzerland) according to manufacturer's instructions. For the priming method, a combination of ¾ random hexamer primers and ¼ anchored-oligo(dT)18 primers was used to avoid 3′-prime bias in cDNAs. qPCR analyses of gene transcripts was done with 5 ng of RNA for each reaction. Three housekeeping genes were used as references for relative quantification of target genes expression. […]
Validation of the microarray gene and microRNA expression data was performed by qPCR using primers specific for human sequences (eg. non-cross-reactive with murine sequences). The effect of chemotherapy on the activation of 21 genes implicated in IFN/Stat pathway (IFIT1, IFITM1, IRF9, IFI6, IFI44, IFI44L, OAS1, OAS2, LAMP3, MX1, PARP9, PARP12, SAMD9, SAMD9L, BST2, DDX60, CLDN1, STAT1, STAT2, UBE2L6, ZNFX1) and two miRNA (miR-142-3p and miR150) was analyzed in responder versus non-responder tumor models. […]

[3] = test system: HBCx-14 breast tumor xenograft; conditions: A/C 2/100 or C 100 mg/kg, x2 cycles
Description: as §1
Chemotherapeutic drugs were administered by intraperitoneal route according to the following doses and schedules: adriamycin, 2 mg/kg, q3wk (Doxorubicin®, Teva Pharmaceuticals, France) and Cyclophosphamide, 100 mg/kg, q3wk (Endoxan®, Baxter, France). Irinotecan (Campto®, Pfizer Holding France), 50 mg/kg, q4dx4. Etoposide 12 mg/kg, qdx3. Ifosfamide 90 mg/kg, qdx3. bPARP inhibitor (AZD2281, Sequoia Research Products, UK) at 50 mg/kg (ip; qdx14). A second treatment cycle was performed with PARP inhibitor at 50 mg/kg (ip qdx5) during the nodule phase. Other pharmacological inhibitors are tested and administrated at the nodule phase: JAK1/2 Inhibitor (CP-690550) at 15 mg/kg (po qdx14), Epigallocatechin gallate (ECGC) (Sequoia Research Products, UK) at 30 mg/kg (ip qdx28), HDAC inhibitor (Trichostatine A), Retinoic acid at 50 mg/kg (ip qdx28) (Sigma-Aldrich, France). Breast tumor xenograft models were transplanted into 5-week old female Swiss nude mice, as described above, one tumor being transplanted into 5-10 recipients. When tumors reached a volume of 60-250 mm3, mice were individually identified and randomly assigned to the control or treated groups (12 to 20 mice per group). Tumor volume was evaluated by measuring two perpendicular diameters of the tumor, with a calliper, biweekly during the treatment period and once a week during the follow-up period. The formula TV (mm3)=[length (mm)×width (mm)2]/2 was used, where the length and the width were the longest and the shortest diameters of the tumor, respectively. All animals were weighted biweekly during the treatment period and the follow-up period. Mice were ethically sacrificed when the tumor volume reached 2000 mm3 Individual tumor growth delays (TGD) is calculated as the time in days required for individual tumors to reach 3- to 5-fold the initial median tumor volume. The tumor growth delay index (TGDI) is calculated as the median growth delay in the treated group divided by the median growth delay in the control group. The percentage ratio between the mean tumor volume of a treated group (T) and the mean tumor volume of the control group (C) is calculated.
(§2) Tumors were collected from 5 independent mice at different time points: prior to treatment (=controls with volume<200 mm3); post-treatment residual tumors (=nodules with volume<32 mm3 until minimal palpation); recurrent tumors (=regrowth with volume>62.5 mm3) Tumors or nodules were processed for (1) FFPE (formalin-fixed paraffin-embedded) or for (2) snap frozen samples: samples were cut into 3-4 mm pieces (at least 3 fragments) and snap-frozen in liquid nitrogen, then transferred to −80° C. for storage. Samples were allocated for histology, microdissection and RNA analyses.
Three categories of responders were defined based on the TGDI and T/C values.

[4] = test system: Stat1 (total, phospho-Tyr701, phospho-Ser727), Ifi27, Ifi44, Lcn2, Oas1; conditions: T330 breast cancer xenograft; after chemotherapy; compared with A/C combination
Experimental: as §2

SMILES | % Nodules [1] | % Tumor Relapse [1] | Median Nodule Apparition Time [1] | Median Time of Relapse [1] | expression of IFN/Stat gene signature in residual nodules (qPCR) [2] | % Nodules [3] | % Tumor Relapse [3] | Median Nodule Apparition Time [3] | Median Time of Relapse [3] | T/C % D21 [3] | TGDI [3] | median TGD × 5 [3] | total and phosphorylated Stat1 protein (western blotting) [4]
CCc1c2c(nc3ccc(OC(=O)N4CCC(N5CCCCC5)CC4)cc13)-c1cc3c(c(=O)n1C2)COC(=O)[C@]3(O)CC [I, Irinotecan] | 43% | 100% | 26 | 18 | gene expression was globally increased |  |  |  |  |  |  |  | 
O=P1(N(CCCl)CCCl)NCCCO1 (stereo not shown) [C, Cyclophosphamide] |  |  |  |  |  | 100% | 67% | 11 | 53 | 2% | 6.66 | 82.00 days | same increase in Stat 1 protein amount and phosphorylation level
